≈ marks a conversion by molar mass, not a printed value. Where two headings read alike, the source gives them in different places.
Tests used:
Type in all cases: cell-based
[1] = test system: C. albicans (GDH2346) hyphae; test: Activity against hyphae, Live-Dead stain fluorescence microscopy; conditions: 8 μg/mL, 15 to 60 minutes
Procedure: C. albicans (GDH2346) was grown in 10% FCS for 3 days to achieve hyphae. Hyphae were treated with Compound 100 (8 μg/mL) for 0 minutes (see, FIG. 2A), 15 minutes (see, FIG. 2B), 30 minutes (see, FIG. 2C), or 60 minutes (see, FIG. 2D). Cultures were stained with FungaLight Live-Dead stain (InVitrogen) and observed under fluorescence microscopy (100× magnification).

S. salivarius = test: Commensal bacteria MIC, broth microdilution; conditions: Streptococcus salivarius
Procedure: (§1) Bacterial MICs were determined using a broth microdilution assay under standard
(§2) CLSI conditions Bacteria strains: clinical isolates; yeast strains: C. dubliniensis (NCPF3949), C. glabrata (ATCC 90030), C. krusei (ATCC 6258), C. parapsilosis (ATCC 22019), and C. tropicalis (ATCC 750). Cytotoxicity (EC50) was determined against mouse 3T3 fibroblasts, human transformed liver HepG2 cells, and human oral keratinocyte cell line, OKF6/TERT using an MTS viability assay.

A. viscosis = test: Commensal bacteria MIC, broth microdilution
Procedure: as §1, §2

C. albicans GDH2346 [2] = test: Candida IC50, vegetative cells, by OD600 and fluorescence; conditions: Candida albicans, GDH2346
Procedure: Candida IC50s were determined by OD600 and fluorescence from vegetative cells and by MTS viability assay in the hyphal state. MICs were determined using a broth microdilution assay under standard CLSI conditions Bacteria strains: E. coli 25922 (EC), S. aureus 27660 (SA), E. faecalis 29212 (EF), P. aeruginosa 10145 (PA), and K. pneumoniae 13883 (KP). Cytotoxicity (EC50) was determined against mouse 3T3 fibroblasts, human transformed liver HepG2 cells, and human oral keratinocyte cell line, OKF6/TERT using an MTS viability assay. Candida IC50s<10 μg/mL, MICs<5 μg/mL and cytotoxicity EC50s>100 μM are indicated in green. MICs>5 μg/mL and cytotoxicity EC50s<100 μM are indicated in red. Candida IC50s (CA) were determined by OD600 and fluorescence from vegetative cells. MICs were determined using a broth microdilution assay under standard CLSI conditions Bacteria strains: E. coli 25922 (EC), S. aureus 27660 (SA), E. faecalis 29212 (EF), P. aeruginosa 10145 (PA), and K. pneumoniae 13883 (KP). Cytotoxicity (EC50) was determined against mouse 3T3 fibroblasts and human transformed liver HepG2 cells using an MTS viability assay. For determination of anti-Candida IC50s, the method was modified by using RPMI/MOPS buffer pH 6.3 and by addition of FDGlu, a substrate for the yeast enzyme exoglucanase which is secreted during cell growth. This provides a fluorescent readout for cell growth which was used in addition to the traditional optical density measure of growth. OD600 and fluorescence were determined at 24 and 48 hours and the average of all 4 reads was used for the final IC50 determination.

[3] = test system: human transformed liver HepG2 cells; test: Cytotoxicity, MTS viability assay; conditions: Homo sapiens, HepG2; cytotoxicity
Procedure: (§3) Candida IC50s were determined by OD600 and fluorescence from vegetative cells and by MTS viability assay in the hyphal state. MICs were determined using a broth microdilution assay under standard CLSI conditions Bacteria strains: E. coli 25922 (EC), S. aureus 27660 (SA), E. faecalis 29212 (EF), P. aeruginosa 10145 (PA), and K. pneumoniae 13883 (KP). Cytotoxicity (EC50) was determined against mouse 3T3 fibroblasts, human transformed liver HepG2 cells, and human oral keratinocyte cell line, OKF6/TERT using an MTS viability assay. Candida IC50s<10 μg/mL, MICs<5 μg/mL and cytotoxicity EC50s>100 μM are indicated in green. MICs>5 μg/mL and cytotoxicity EC50s<100 μM are indicated in red.
(§4) Candida IC50s (CA) were determined by OD600 and fluorescence from vegetative cells. MICs were determined using a broth microdilution assay under standard CLSI conditions Bacteria strains: E. coli 25922 (EC), S. aureus 27660 (SA), E. faecalis 29212 (EF), P. aeruginosa 10145 (PA), and K. pneumoniae 13883 (KP). Cytotoxicity (EC50) was determined against mouse 3T3 fibroblasts and human transformed liver HepG2 cells using an MTS viability assay.
as §2

mouse 3T3 fibroblasts = test: Cytotoxicity, MTS viability assay; conditions: Mus musculus, NIH3T3; cytotoxicity
Procedure: as §3, §4, §2

C. albicans GDH2346 [4] = test: Time kill; conditions: FIGS. 6A and 6B
Procedure: Time kills were performed in the same manner as IC50s. At each time point yeast were removed, diluted as necessary and plated on YPD agar to determine viable CFUs.

[5] = test system: human oral keratinocyte cell line, OKF6/TERT; test: Cytotoxicity, MTS viability assay
Procedure: as §3, §2

A. fumigatus (A1163) = test: Anti-Aspergillus screen, CLSI M38-A, visual inhibition of growth; conditions: screening concentration 10 μM, 24-48 hours
Procedure: (§5) The in vitro efficacy of a library of compounds was assessed for antifungal activity against A. niger (AN1), A. fumigatus ([…]) and A. flavus (NRRL3357) and compared to that of Itraconazole. For a subset of compounds selected based upon efficacy in the screening study a full MIC profile was conducted. Efficacy of test articles was determined in RPMI 1640 broth with MOPS buffered to pH7.2 in accordance with CLSI guidelines M38-A for Antifungal Susceptibility Testing of Filamentous Fungi. The method was modified by using flat well plates to allow microscopic identification of growth. The final screening concentration of each test article was 10 μM. Assay plates were incubated aerobically at 37° C. for 24-48 hours. Following incubation, plates were assessed visually (by eye and microscopically) for inhibition of growth. Inhibition was recorded at 50%, 80% and 100% inhibition compared to the positive control.

A. flavus (NRRL3357) = test: as above; conditions: screening concentration 10 μM, 24-48 hours
Procedure: as §5

A. niger (AN1) = test: as above; conditions: screening concentration 10 μM, 24-48 hours
Procedure: as §5

[6] = vegetative cells, read-out: IC50 Candida, Vegetative
[7] = vegetative cultures, read-out: Anti-C. albicans GDH2346 Vegetative (IC50)

MIC (S. salivarius) [µg/mL]	MIC (A. viscosis) [µg/mL]	IC50 (C. albicans GDH2346 [2]; [6]) [µg/mL]	IC50 (C. albicans GDH2346 [2]; [7]) [µg/mL]	IC50 (C. albicans GDH2346 [2]; Table 6, read-out: IC50 C. albicans) [µg/mL]	SMILES	death of hyphal cultures [1]	IC50 [3] [µM]	IC50 (mouse 3T3 fibroblasts) [µM]	killing kinetics (C. albicans GDH2346 [4])	IC50 [5] [µM]	inhibition at 10 µM (A. fumigatus (A1163)) [%]	inhibition at 10 µM (A. flavus (NRRL3357)) [%]	inhibition at 10 µM (A. niger (AN1)) [%]
> 64	> 64	4.93 (≈ 6.53 µM)	4.93 (≈ 6.53 µM)		NCCSc1cc(SCCN)c(C(F)(F)F)cc1NC(=O)c1cc(C(=O)Nc2cc(C(F)(F)F)c(SCCN)cc2SCCN)ncn1 [Compound 100]	rapidly caused death of hyphal cultures at low concentrations	> 1000	439	cidal activity with rapid killing kinetics	> 1000			
16 (≈ 33 µM)	4 (≈ 8.25 µM)	4.24 (≈ 8.75 µM)	4.24 (≈ 8.75 µM)	1.4 (≈ 2.89 µM)	N=C(N)N1CCN(c2ccc(-c3cc(-c4ccc(N5CCN(C(=N)N)CC5)cc4)ncn3)cc2)CC1 [Compound 136]		453	311		466	100	100	100
> 64	> 64	1.89 (≈ 2.59 µM)			NCCCOc1cc(-c2cn(-c3cc(OCCCN)cc(OCCCN)c3)nn2)cc(-c2cn(-c3cc(OCCCN)cc(OCCCN)c3)nn2)c1 [Compound 137]		182	83		42			

SMILES	MIC (S. salivarius) [µg/mL]	MIC (A. viscosis) [µg/mL]	IC50 (C. albicans GDH2346 [2]; [6]) [µg/mL]	IC50 (C. albicans GDH2346 [2]; [7]) [µg/mL]	IC50 (C. albicans GDH2346 [2]; Table 6, read-out: IC50 C. albicans) [µg/mL]	death of hyphal cultures [1]	IC50 [3] [µM]	IC50 (mouse 3T3 fibroblasts) [µM]	killing kinetics (C. albicans GDH2346 [4])	IC50 [5] [µM]	inhibition at 10 µM (A. fumigatus (A1163)) [%]	inhibition at 10 µM (A. flavus (NRRL3357)) [%]	inhibition at 10 µM (A. niger (AN1)) [%]
NCCCOc1cc(OCCCN)cc(-c2ccc3c(c2)c2cc(-c4cc(OCCCN)cc(OCCCN)c4)ccc2n3CCCN)c1 [Compound 135]	> 64	> 64	1.44 (≈ 2.15 µM)	1.44 (≈ 2.15 µM)			885	436	cidal activity with rapid killing kinetics	766			

From patent US8895561B2, “Compounds and methods for treating candidiasis and aspergillus infections” (Cellceutix Corporation, priority 2012, dated 2014)
